Data as given in patent publication US12692238B2, “Substituted pyridazinone herbicides” (FMC CORPORATION, priority 2020, dated 2026).

How the values were obtained:
Format in all cases: in vivo
[1] = system: foxtail, giant (giant foxtail, Setaria faberi); assay: Test A postemergence, foxtail, giant; conditions: 10 days
Source text: (§1) Seeds of plant species selected from barnyardgrass (Echinochloa crus-galli), blackgrass (Alopecurus myosuroides), corn (Zea mays), foxtail, giant (giant foxtail, Setaria faberi), foxtail, green (green foxtail, Setaria viridis), goosegrass (Eleusine indica), kochia (Bassia scoparia), oat, wild (wild oat, Avena fatua), palmer amaranth (pigweed, palmer, Amaranthus palmeri), redroot pigweed (Amaranthus retroflexus), ragweed (common ragweed, Ambrosia artemisiifolia), ryegrass, Italian (Italian ryegrass, Lolium multiflorum), and soybean (Glycine max) were planted into a blend of loam soil and sand and treated preemergence with a directed soil spray using test chemicals formulated in a non-phytotoxic solvent mixture which included a surfactant.
(§2) At the same time, plants selected from these crop and weed species and also wheat (Triticum aestivum), galium (catchweed bedstraw, Galium aparine) and horseweed (Erigeron canadensis) were planted in pots containing the same blend of loam soil and sand and treated with postemergence applications of test chemicals formulated in the same manner. Plants ranged in height from 2 to 10 cm and were in the one- to two-leaf stage for the postemergence treatment. Treated plants and untreated controls were maintained in a greenhouse for 10 days, after which time all treated plants were compared to untreated controls and visually evaluated for injury. Plant response ratings, summarized in Table A, are based on a 0 to 100 scale where 0 is no effect and 100 is complete control. A dash (-) response means no test result.

[2] = system: barnyardgrass (Echinochloa crus-galli); assay: Test A preemergence, barnyardgrass; conditions: 10 days
Source text: as §1, §2

[3] = system: foxtail, giant (giant foxtail, Setaria faberi); assay: Test A preemergence, foxtail, giant; conditions: 0 to 100 scale, 10 days
Source text: as §1, §2

rice (Oryza sativa) = assay: Test B flooded paddy test, rice; conditions: 250 g ai/ha, Flood; visually evaluated after 10 to 14 days
Method: (§3) Plant species in the flooded paddy test selected from barnyardgrass (Echinochloa crus-galli), ducksalad (Heteranthera limosa), rice (Oryza sativa), and sedge, umbrella (small-flower umbrella sedge, Cyperus difformis) were grown to the 2-leaf stage for testing. At time of treatment, test pots were flooded to 3 cm above the soil surface, treated by application of test compounds directly to the paddy water, and then maintained at that water depth for the duration of the test. Treated plants and controls were maintained in a greenhouse for 10 to 14 days, after which time all species were compared to controls and visually evaluated. Plant response ratings, summarized in Table B, are based on a scale of 0 to 100 where 0 is no effect and 100 is complete control. A dash (-) response means no test result.

[4] = system: redroot pigweed (Amaranthus retroflexus); assay: Test A preemergence, redroot pigweed; conditions: 0 to 100 scale, 10 days
Source text: as §1, §2

[5] = system: ragweed (common ragweed, Ambrosia artemisiifolia); assay: Test A preemergence, ragweed; conditions: 0 to 100 scale, 10 days
Source text: as §1, §2

kochia (Bassia scoparia) [6] = assay: Test A preemergence, kochia; conditions: 0 to 100 scale, 10 days
Source text: as §1, §2

[7] = system: ryegrass, Italian (Italian ryegrass, Lolium multiflorum); assay: Test A preemergence, ryegrass, Italian; conditions: 0 to 100 scale, 10 days
Source text: as §1, §2

[8] = system: ducksalad (Heteranthera limosa); assay: Test B flooded paddy test, ducksalad; conditions: 250 g ai/ha, Flood; visually evaluated after 10 to 14 days
Method: as §3

[9] = system: ryegrass, Italian (Italian ryegrass, Lolium multiflorum); assay: Test A postemergence, ryegrass, Italian; conditions: 10 days
Source text: as §1, §2

[10] = system: galium (catchweed bedstraw, Galium aparine); assay: Test A postemergence, galium; conditions: 10 days
Source text: as §1, §2

[11] = system: sedge, umbrella (small-flower umbrella sedge, Cyperus difformis); assay: Test B flooded paddy test, sedge, umbrella; conditions: 250 g ai/ha, Flood; visually evaluated after 10 to 14 days
Method: as §3

[12] = system: barnyardgrass (Echinochloa crus-galli); assay: Test A postemergence, barnyardgrass; conditions: 10 days
Source text: as §1, §2

corn (Zea mays) = assay: Test A postemergence, corn; conditions: 10 days
Source text: as §1, §2

[13] = system: wheat (Triticum aestivum); assay: Test A postemergence, wheat; conditions: 10 days
Source text: as §1, §2

[14] = system: barnyardgrass (Echinochloa crus-galli); assay: Test B flooded paddy test, barnyardgrass; conditions: 250 g ai/ha, Flood; visually evaluated after 10 to 14 days
Method: as §3

[15] = system: redroot pigweed (Amaranthus retroflexus); assay: Test A postemergence, redroot pigweed; conditions: 10 days
Source text: as §1, §2

kochia (Bassia scoparia) [16] = assay: Test A postemergence, kochia; conditions: 10 days
Source text: as §1, §2

[17] = system: blackgrass (Alopecurus myosuroides); assay: Test A postemergence, blackgrass; conditions: 10 days
Source text: as §1, §2

[18] = system: ragweed (common ragweed, Ambrosia artemisiifolia); assay: Test A postemergence, ragweed; conditions: 10 days
Source text: as §1, §2

[19] = 31 g ai/ha, postemergence, 0 to 100 scale (0 no effect, 100 complete control)
[20] = Postemergence, 125 g ai/ha, 0 to 100 scale
[21] = 125 g ai/ha, 0 to 100 scale (0 no effect, 100 complete control)
[22] = Postemergence, 31 g ai/ha, 0 to 100 scale

COc1cc(OC)c2cc3ccc(F)cc3c(-c3c(OCOC(C)=O)c(C)nn(C)c3=O)c2c1 [Compound 25]
0: Plant response rating, Foxtail, Giant [1, 19] | Plant response rating, Barnyardgrass ([2]; 31 g ai/ha, 0 to 100 scale) | Plant response rating, Barnyardgrass [2, 21] | Plant response rating, Foxtail, Giant ([3]; 31 g ai/ha) | Plant response rating, Foxtail, Giant ([3]; 125 g ai/ha) | Plant response rating, Rice (0 to 100 scale where 0 is no effect and 100 is complete control) (rice (Oryza sativa)) | Plant response rating, Pigweed, Redroot ([4]; 31 g ai/ha) | Plant response rating, Ragweed ([5]; 31 g ai/ha) | Plant response rating, Ragweed ([5]; 125 g ai/ha) | Plant response rating, Kochia (kochia (Bassia scoparia) [6]; 31 g ai/ha) | Plant response rating, Kochia (kochia (Bassia scoparia) [6]; 125 g ai/ha) | Plant response rating, Ryegrass, Italian ([7]; 31 g ai/ha) | Plant response rating, Ryegrass, Italian ([7]; 125 g ai/ha) | Plant response rating, Ducksalad (0 to 100 scale where 0 is no effect and 100 is complete control) [8] | Plant response rating, Ryegrass, Italian [9, 19] | Plant response rating, Ryegrass, Italian [9, 20] | Plant response rating, Sedge, Umbrella (0 to 100 scale where 0 is no effect and 100 is complete control) [11] | Plant response rating, Barnyardgrass [12, 19] | Plant response rating, Corn (corn (Zea mays); [19]) | Plant response rating, Wheat [13, 19] | Plant response rating, Wheat [13, 20] | Plant response rating, Barnyardgrass (0 to 100 scale where 0 is no effect and 100 is complete control) [14] | Plant response rating, Kochia (kochia (Bassia scoparia) [16]; [19]) | Plant response rating, Blackgrass [17, 19] | Plant response rating, Ragweed [18, 19] | Plant response rating, Ragweed [18, 20]
10: Plant response rating, Barnyardgrass [12, 20] | Plant response rating, Kochia (kochia (Bassia scoparia) [16]; [20]) | Plant response rating, Blackgrass [17, 20]
20: Plant response rating, Foxtail, Giant [1, 20] | Plant response rating, Corn (corn (Zea mays); [20])
30: Plant response rating, Pigweed, Redroot ([4]; 125 g ai/ha)
60: Plant response rating, Galium [10, 20]
80: Plant response rating, Pigweed, Redroot [15, 19]
50: Plant response rating, Galium [10, 19]
90: Plant response rating, Pigweed, Redroot [15, 20]

CC(=O)OCOc1c(C)nn(C)c(=O)c1-c1c2ccccc2c(Br)c2ccccc12 [Compound 14]
30: Plant response rating, Foxtail, Giant [1, 22] | Plant response rating, Kochia (kochia (Bassia scoparia) [6]; 125 g ai/ha) | Plant response rating, Barnyardgrass [12, 22] | Plant response rating, Kochia (kochia (Bassia scoparia) [16]; [19]) | Plant response rating, Blackgrass [17, 20]
90: Plant response rating, Foxtail, Giant [1, 20] | Plant response rating, Ragweed ([5]; 31 g ai/ha) | Plant response rating, Sedge, Umbrella (0 to 100 scale where 0 is no effect and 100 is complete control) [11] | Plant response rating, Ragweed [18, 19]
40: Plant response rating, Wheat [13, 20]
60: Plant response rating, Foxtail, Giant ([3]; 31 g ai/ha) | Plant response rating, Kochia (kochia (Bassia scoparia) [16]; [20])
0: Plant response rating, Rice (0 to 100 scale where 0 is no effect and 100 is complete control) (rice (Oryza sativa)) | Plant response rating, Corn (corn (Zea mays); [22]) | Plant response rating, Corn (corn (Zea mays); [20]) | Plant response rating, Wheat [13, 19]
20: Plant response rating, Kochia (kochia (Bassia scoparia) [6]; 31 g ai/ha) | Plant response rating, Barnyardgrass (0 to 100 scale where 0 is no effect and 100 is complete control) [14] | Plant response rating, Blackgrass [17, 22]
80: Plant response rating, Barnyardgrass [2, 21] | Plant response rating, Ryegrass, Italian ([7]; 31 g ai/ha) | Plant response rating, Ducksalad (0 to 100 scale where 0 is no effect and 100 is complete control) [8] | Plant response rating, Ryegrass, Italian [9, 19] | Plant response rating, Barnyardgrass [12, 20]
100: Plant response rating, Foxtail, Giant ([3]; 125 g ai/ha) | Plant response rating, Pigweed, Redroot ([4]; 31 g ai/ha) | Plant response rating, Pigweed, Redroot ([4]; 125 g ai/ha) | Plant response rating, Ragweed ([5]; 125 g ai/ha) | Plant response rating, Ryegrass, Italian ([7]; 125 g ai/ha) | Plant response rating, Ryegrass, Italian [9, 20] | Plant response rating, Galium [10, 19] | Plant response rating, Galium [10, 20] | Plant response rating, Pigweed, Redroot [15, 19] | Plant response rating, Pigweed, Redroot [15, 20] | Plant response rating, Ragweed [18, 20]
10: Plant response rating, Barnyardgrass ([2]; 31 g ai/ha, 0 to 100 scale)
